# Values joined by “and” are separate entries in the source; they are usually repeats but may differ in a detail not shown here. Equal values may be shown once.
# How the values were obtained:
# [1] = tested on: sarcoma-180 tumors; details: cited from earlier work; for life span increase / regressors: Miyamoto's mouse studies, sarcoma-180; for antitumor effect, in words: mice infected with sarcoma-180 tumors
# [2] = tested on: IL-1β secretion from h-PBMC's; assay: IL-1β release from h-PBMC's, ELISA; type: cell-based, human; details: h-PBMC's
# Method: (§1) Authentic samples of agrimoniin and coriariin A were supplied by Professor Yoshida (Okayama University, Japan). Dimeric gallotannin (analog of coriariin A) and β-D-PGG were synthesized as described. LPS (E. coli 055:B5 phenol extract, MW range 50-100 KD). Ficoll-Histopaque (ρ=1.077 g/mL), Fetal Bovine Serum, sterile, hybridoma tested (FCS), gentamicin 10 mg/mL. L-glutamine, 200 mM. Dextran B-512 Leuconostoc Av M.W. 580000, and Trypan Blue stain were purchased from Sigma. Hanks Buffer Saline Solution 1×, with phenol red, mediatech (HBSS) and RPMI 1640 1×, mediatech were purchased from Fisher Scientific, Human IL-1β and TNF-α Enzyme Linked ImmunoSorbent Assay (ELISA) kits were purchased from R and D Systems, Minneapolis, Minn. Fresh heparinized blood was obtained from health human subjects (ages 20-34).
# (§2) Dose-Response Data: General Procedure. H-PBMC's were isolated by reported procedures (10. 18). The cells counted and the viability was determined by Trypan Blue exclusion (typically, viability exceeded 95%). The concentration of the cells in the 0.5 mL wells was adjusted to 1×10^6 cells/well by diluting with the required amount of RPMI.
# (§3) The appropriate amount of a tannin (or LPS) stock solution in HBSS was added to each well to furnish the concentration values reported in the Figures. […] The culture plates were incubated in a 5% CO2, 37° C. humidified incubator for the indicated time. At the end of the time interval, 450 μL of the culture supernatant from each well was harvested, after centrifugation at 400 g, 25° C., 10 min. with brake, and stored at −78° C. pending ELISA analysis for the cytokine(s). The ELISA assays were conducted per the manufacturer's instructions using standard calibration curves to calculate cytokine concentration from observed absorbance readings. The cytokine values reported are averages of three runs±SE.
# (§4) The dimeric antitumor ellagitannins coriariin A and agrimoniin, the monomeric gallotannin β-D-pentagalloylglucose (β-D-PGG) and the dimeric gallotannin of this invention were all examined in this study. The dimeric gallotannin is an analog of coriariin A and is identical to the parent ellagitannin except that the galloyl rings at O(4) and O(6) are not joined in a hexahydroxydiphenoyl (HHDP) linkage. h-PBMC's were incubated with the compound under investigation for the indicated length of time and the amounts of both IL-1β and, independently, TNF-α, present in the culture supernatants was determined using commercially available ELISA kits. In each case, LPS was used as a positive control while untreated cells were reserved as negative controls.
# In the third study, compounds 17c-20c were examined for their ability to induce secretion of IL-1β from h-PBMC's (FIG. 16). Recall from the introduction that the cytokine IL-1β is also released in an LPS-stimulated septic shock response. The compounds that cause very little secretion of IL-1β or none at all will be the optimal compounds for potential septic shock therapeutics because they will be less likely themselves to induce a septic shock response.
# [3] = tested on: LPS induced secretion of TNF-α; assay: In vivo study in rats given LPS with or without β-PGG
# Method: The ability of β-PGG to function in vivo was investigated in collaboration with Dr. Charles Lang of the Hershey Medical School. In this experiment, two groups of rats were used. One group was intravenously administered 1 mg/kg of LPS as well as 25 mg of β-PGG. The second group was given only 1 mg/kg of LPS. […] These preliminary in vivo results were encouraging, however several problems with the use of β-PGG as an inhibitor are evident. A large amount of β-PGG was required to elicit inhibition because β-PGG is a small monomeric gallotannin that is able to interact with other blood proteins such as rat serum albumin.
# [4] = tested on: TNF-α secretion from h-PBMC's; assay: TNF-α release from h-PBMC's, ELISA; type: cell-based, human
# Method: as §1, §2, §3, §4
# In the first study, the induction of TNF-α secretion from h-PBMC's in the presence of each compound 17c-21c was measured. The h-PBMC's were incubated with each compound for 24 hours. The TNF-α levels in the cell culture supernatant were assayed by Enzyme Linked ImmunoSorbant Assay (ELISA). The data point for each assay represent the mean of triplicate measurements. […] (See FIG. 11).
# [5] = tested on: LPS induced TNF-α secretion from h-PBMC's; assay: Inhibition of LPS induced TNF-α secretion from h-PBMC's; type: cell-based, human; details: h-PBMC's
# Method: In the second study, the ability of compounds 17c-20c to inhibit LPS induced TNF-α production in h-PBMC's was investigated using four assays. The first experiment was a kinetics run in which the h-PBMC's were initially incubated with a fixed concentration of LPS (5 μg/mL) for 45 minutes. This incubation period was followed by addition of a fixed concentration (10 μg/mL) of compounds 17c-20c. The cells were harvested at varying intervals of time. […] The optimal time was determined by comparing the amount of TNF-α secreted by LPS alone to the amount of TNF-α secreted by LPS and substrate at each time point.
# The second assay determined the minimum amount of substrate required for inhibition. LPS (10 μg/mL) was incubated with h-PBMC's for 45 minutes followed by addition of 17c-20c at varying concentrations. The cell culture supernatant was harvested after 8 hours. The inherent variability in using cells from different subjects, or in the day of assay, made it difficult to compare overall effectiveness of inhibitors. Therefore, to more easily identify the concentration at which maximum inhibition occurs for a given compound, the TNF-α secretion was normalized by calculating a percent of maximum secretion value (based on LPS alone) (FIG. 13). […] The optimal concentration for inhibition varied between substrates, but the general dose response trend was the same. Overall, the maximum inhibition was 45% for 18c and 20c, and 25% for 19c.
# The third assay investigated the ability of 17c, 18c, and 20c to inhibit LPS induced TNF-α secretion using a smaller dosage of LPS (5 μg/mL) (FIG. 14). Again, the response was dose dependent. The maximum inhibition was 45% for 17c and 20c, and 35% for 18c.
# In the fourth assay the varying concentrations of substrates 17c-20c and LPS were added at the same time to determine the effect of addition sequence on the inhibition of TNF-α secretion (FIG. 15). The addition time seemed to make a difference in the overall dose response trend. However, maximum inhibition was the same as when the compounds were added 45 minutes after LPS addition (about 40% for each compound).
# Finally, in the last study, analogs 19c and 20c were again tested for inhibition LPS induced TNF-α secretion (FIG. 17). In this assay a smaller dose of LPS was used to determine if inhibition was greater when much lower doses of LPS were present. The substrates were added 45 minutes after LPS addition and the cells were harvested after 8 hours. It doesn't appear as though the substrates are better inhibitors when smaller amounts of LPS are used, again perhaps reflecting receptor saturation with LPS at this dosage.
# [6] = tested on: IL-1β secretion from h-PBMC's; details: cited from earlier work
# [7] = tested on: L929 murine fibroblast; assay: qualitative L929 murine fibroblast lysis assay of h-PBMC supernatant; type: cell-based
# Source text: This indirect measure of TNF-α levels in the h-PBMC supernatant provided the first evidence which implicated this cytokine in tannin-mediated antitumor activity and encouraged a more quantitative assessment of the TNF-α liberating capacity of agrimoniin and the related species as described below.
# [8] = in vivo; cited from earlier work
# [9] = fixed concentrations, time course
# [10] = rats, 1 mg/kg LPS intravenously and 25 mg β-PGG
compound,measurement,setting,value
"O=C(OCC1OC(OC(=O)c2cc(O)c(O)c(O)c2)[C@H](OC(=O)c2cc(O)c(O)c(O)c2)[C@@H](OC(=O)c2cc(O)c(O)c(O)c2)C1OC(=O)c1cc(O)c(O)c(O)c1)c1cc(O)c(O)c(O)c1 (stereo partly drawn) [Compound 1, β-D-pentagalloylglucose]",life span increase,[1],82%
same,regressors,[1],0/6
same,"antitumor effect, in words",[1],much less effective antitumor agents
same,IL-1β detected at 4 h reading,"[2]; fixed concentrations, 4 h",only trace amounts
same,time of maximum IL-1β discharge,[2]; [9],ca. 24 h
same,"IL-1β secretion from h-PBMC's, in words",[2]; listed as β-D-PGG,effective at stimulating the production of IL-1β
same,"IL-1β secretion from h-PBMC's, in words",[2]; listed as β-PGG,high levels of IL-1β
same,TNF-α secreted from 90 min,"[3]; rats given LPS 1 mg/kg intravenously + 25 mg β-PGG (LPS + 1), 90 min, individual rats, ± SD",6919.4 ± 823.2 pg/mL and 4509.4 ± 583.3 pg/mL and 8060.7 ± 918.2 pg/mL and 1928.4 ± 331.5 pg/mL
same,TNF-α secreted after 180 min,"[3]; rats given LPS 1 mg/kg intravenously + 25 mg β-PGG (LPS + 1), 180 min, individual rats, ± SD",733.9 ± 28.3 pg/mL and 291.7 ± 68.0 pg/mL and 1347.5 ± 150.4 pg/mL and 129.9 ± 105.5 pg/mL
same,"TNF-α secretion compared to LPS-only rats, in words",[3]; [10],suppressed levels of TNF-α secretion
same,septic shock response (blood pressure),[3]; [10],low blood pressure was still observed
same,"TNF-α secretion from h-PBMC's, in words",[4],much less TNF-α discharge
same,TNF-α detected at 4 h reading,"[4]; fixed concentrations, 4 h",only trace amounts
same,time of maximum TNF-α discharge,[4]; [9],ca. 24 h
same,"inhibition of LPS induced TNF-α secretion from h-PBMC's, in words",[5],can inhibit LPS induced secretion of TNF-α
O=C(O[C@H]1O[C@@H]2COC(=O)c3cc(O)c(O)c(O)c3-c3c(cc(O)c(O)c3O)C(=O)O[C@H]2[C@@H]2OC(=O)c3cc(O)c(O)c(O)c3-c3c(cc(O)c(O)c3O)C(=O)O[C@@H]12)c1cc(O)c(O)c(Oc2c(C(=O)O[C@H]3O[C@@H]4COC(=O)c5cc(O)c(O)c(O)c5-c5c(cc(O)c(O)c5O)C(=O)O[C@H]4[C@@H]4OC(=O)c5cc(O)c(O)c(O)c5-c5c(cc(O)c(O)c5O)C(=O)O[C@@H]34)cc(O)c(O)c2O)c1 [agrimoniin],"antitumor effect, in words",[1],induce tumor regression
same,IL-1β secreted (reported earlier),[6]; 20 μM agrimoniin,ca. 1.2 ng/mL
same,time of maximal IL-1β secretion,"[6]; agrimoniin-mediated, Miyamoto",ca. 24 h
same,IL-1β secreted above blank,[2]; 4 h treatment with 28 μM agrimoniin,ca. 1 ng/mL
same,"release of TNF-α, indirect measure by L929 lysis",[7],promoted release of TNF-α in substantial amounts
O=C(OC1OC2COC(=O)c3cc(O)c(O)c(O)c3-c3c(cc(O)c(O)c3O)C(=O)OC2C(OC(=O)c2cc(O)c(O)c(O)c2)C1OC(=O)c1cc(O)c(O)c(O)c1)c1cc(O)c(O)c(Oc2c(C(=O)OC3OC4COC(=O)c5cc(O)c(O)c(O)c5-c5c(cc(O)c(O)c5O)C(=O)OC4C(OC(=O)c4cc(O)c(O)c(O)c4)C3OC(=O)c3cc(O)c(O)c(O)c3)cc(O)c(O)c2O)c1 (stereo not drawn) [coriariin A],life span increase,[1],238%
same,regressors,[1],3/6
same,"antitumor effect, in words",[1],induce tumor regression
same,IL-1β inducing ability relative to agrimoniin on a molar basis,[2]; 4 h,twice that of agrimoniin
same,"release of TNF-α, indirect measure by L929 lysis",[7],promoted release of TNF-α in substantial amounts
same,"TNF-α secretion from h-PBMC's, in words",[4],higher levels of TNF-α
TNF-α,"clearance from serum, t1/2",[8],6.5 to 10.5 min
